Measured values reported in PMC7089538, “The effects of intra-stomach obestatin administration on intestinal contractility in neonatal piglets fed milk formula” (PLoS ONE, 2020).
Marks after values point to notes of the source that are not given here. Where no end group is shown, it is not given here.

How the values were obtained:
Assay type in all cases: in vivo, piglets (Polish Landrace x Pietrain)
duodenum [1] = experiment: Spontaneous contractility of whole-thickness preparations in organ bath after 6-day enteral obestatin; details: O15: obestatin 15 μg/kg BW intra-stomach every 8 h, 6 days; duodenal segment (Fig 2)
Description: (§1) Piglets' BW was recorded every morning. […] The protein concentration in the milk formula was 20%. […] The tissues were attached to isotonic transducers (Letica Scientific Instruments, Spain) under a load of 1.0 g that were coupled with a PowerLab recording system (ADInstruments, Sydney, Australia). […] The tissues were then washed and allowed to equilibrate. […] Half of randomly selected jejunal segments were pre-treated with atropine.

middle jejunum [2] = experiment: as above; details: 6 days, middle jejunum (Fig 2)
Description: as §1

duodenum [3] = experiment: ACh-stimulated or atropine-treated contractions; details: 6 days, duodenum strips, mean ± SEM
Description: as §1

middle jejunum [4] = experiment: ACh-stimulated or atropine-treated contractions; details: 6 days, middle jejunum strips, mean ± SEM; for amplitude of atropine treated contractions: atropine pretreatment (ATR^-6)
Description: as §1

duodenum [5] = experiment: Histology: thickness of intestinal muscularis layer; details: 6 days, H&E histometry, mean ± SEM
Description: (§2) Piglets' BW was recorded every morning. […] The protein concentration in the milk formula was 20%. […] Briefly, the samples were routinely embedded in paraffin and cut into 4.5 μm sections and applied to silane-treated slides. Next, the sections were immersed in xylene for dewaxing and then in descending grades of alcohol for rehydration. The segments were routinely stained using hematoxylin and eosin.

middle jejunum [6] = experiment: as above; details: 6 days, H&E histometry, mean ± SEM
Description: as §2

[7] = O10: obestatin 10 μg/kg BW intra-stomach every 8 h
[8] = O15: obestatin 15 μg/kg BW intra-stomach every 8 h
[9] = O2: obestatin 2 μg/kg BW intra-stomach every 8 h, ACh^-4 (10^−4 M, cumulative)
[10] = O2: obestatin 2 μg/kg BW intra-stomach every 8 h, ACh^-5 (10^−5 M, cumulative)
[11] = O2: obestatin 2 μg/kg BW intra-stomach every 8 h, ACh^-6 (10^−6 M, cumulative)
[12] = O2: obestatin 2 μg/kg BW intra-stomach every 8 h, ACh^-7 (10^−7 M, cumulative)
[13] = O2: obestatin 2 μg/kg BW intra-stomach every 8 h, ACh^-8 (10^−8 M, cumulative)
[14] = O10: obestatin 10 μg/kg BW intra-stomach every 8 h, ACh^-4 (10^−4 M, cumulative)
[15] = O10: obestatin 10 μg/kg BW intra-stomach every 8 h, ACh^-5 (10^−5 M, cumulative)
[16] = O10: obestatin 10 μg/kg BW intra-stomach every 8 h, ACh^-6 (10^−6 M, cumulative)
[17] = O10: obestatin 10 μg/kg BW intra-stomach every 8 h, ACh^-7 (10^−7 M, cumulative)
[18] = O10: obestatin 10 μg/kg BW intra-stomach every 8 h, ACh^-8 (10^−8 M, cumulative)
[19] = O10: obestatin 10 μg/kg BW intra-stomach every 8 h, ACh^-9 (10^−9 M, cumulative)
[20] = O15: obestatin 15 μg/kg BW intra-stomach every 8 h, ACh^-4 (10^−4 M, cumulative)
[21] = O15: obestatin 15 μg/kg BW intra-stomach every 8 h, ACh^-5 (10^−5 M, cumulative)
[22] = O15: obestatin 15 μg/kg BW intra-stomach every 8 h, ACh^-6 (10^−6 M, cumulative)
[23] = O15: obestatin 15 μg/kg BW intra-stomach every 8 h, ACh^-7 (10^−7 M, cumulative)
[24] = O15: obestatin 15 μg/kg BW intra-stomach every 8 h, ACh^-8 (10^−8 M, cumulative)
[25] = O15: obestatin 15 μg/kg BW intra-stomach every 8 h, ACh^-9 (10^−9 M, cumulative)
[26] = O2: obestatin 2 μg/kg BW intra-stomach every 8 h

In the case of FNAPFDVGIKLSGAQYQQHGRAL-NH2 [obestatin], the “amplitude of spontaneous contractions compared to C” value (shortened to “amplitude … compared to C”) (duodenum [1]) is reported as “significantly higher”, the “amplitude … compared to C” value (middle jejunum [2]; [7]) is reported as “significant increase in the amplitude of contractions was observed in C piglets in comparison to O10 and O15 groups” and the “amplitude … compared to C” value (middle jejunum [2]; [8]) is reported as “significant increase in the amplitude of contractions was observed in C piglets in comparison to O10 and O15 groups”. The “amplitude of ACh stimulated contractions” value (duodenum [3]; [9]) was 14.1 ± 1.2^a^b mm, the “amplitude of ACh stimulated contractions” value (duodenum [3]; [10]) was 11.2 ± 0.7 mm and the “amplitude of ACh stimulated contractions” value (duodenum [3]; [11]) was 7.4 ± 0.9 mm. For the same substance, the “amplitude of ACh stimulated contractions” value (duodenum [3]; [12]) was 7.1 ± 0.7 mm, the “amplitude of ACh stimulated contractions” value (duodenum [3]; [13]) was 7.0 ± 0.7 mm and the “amplitude of ACh stimulated contractions” value (duodenum [3]; O2: obestatin 2 μg/kg BW intra-stomach every 8 h, ACh^-9 (10^−9 M, cumulative)) was 6.2 ± 0.3 mm. The “amplitude of atropine treated contractions” value (duodenum [3]; O2: obestatin 2 μg/kg BW intra-stomach every 8 h, atropine pretreatment (ATR^-6)) was 1.26 ± 0.2 mm, the “amplitude of ACh stimulated contractions” value (duodenum [3]; [14]) was 12.3 ± 1.1^a^b mm and the “amplitude of ACh stimulated contractions” value (duodenum [3]; [15]) was 8.2 ± 0.9 mm. The “amplitude of ACh stimulated contractions” value (duodenum [3]; [16]) was 6.3 ± 0.9 mm, the “amplitude of ACh stimulated contractions” value (duodenum [3]; [17]) was 6.1 ± 0.9 mm and the “amplitude of ACh stimulated contractions” value (duodenum [3]; [18]) was 6.0 ± 0.8 mm. The “amplitude of ACh stimulated contractions” value (duodenum [3]; [19]) was 5.9 ± 0.9 mm, the “amplitude of ACh stimulated contractions” value (duodenum [3]; [20]) was 15.1 ± 0.4^b mm and the “amplitude of ACh stimulated contractions” value (duodenum [3]; [21]) was 9.6 ± 0.6 mm. For the same substance, the “amplitude of ACh stimulated contractions” value (duodenum [3]; [22]) was 6.7 ± 0.8 mm, the “amplitude of ACh stimulated contractions” value (duodenum [3]; [23]) was 5.9 ± 0.6 mm and the “amplitude of ACh stimulated contractions” value (duodenum [3]; [24]) was 5.4 ± 0.4 mm. The “amplitude of ACh stimulated contractions” value (duodenum [3]; [25]) was 5.3 ± 0.5 mm, the “amplitude of ACh stimulated contractions” value (middle jejunum [4]; [9]) was 12.3 ± 1.0^a^b mm and the “amplitude of ACh stimulated contractions” value (middle jejunum [4]; [10]) was 8.0 ± 0.9 mm. The “amplitude of ACh stimulated contractions” value (middle jejunum [4]; [11]) was 6.3 ± 0.9^a^b mm, the “amplitude of ACh stimulated contractions” value (middle jejunum [4]; [12]) was 6.1 ± 0.8 mm and the “amplitude of ACh stimulated contractions” value (middle jejunum [4]; [13]) was 6.0 ± 0.7 mm. The “amplitude of atropine treated contractions” value (middle jejunum [4]; [26]) was 0.97 ± 0.1^a^b mm, the “amplitude of ACh stimulated contractions” value (middle jejunum [4]; [14]) was 12.5 ± 0.9^b mm and the “amplitude of ACh stimulated contractions” value (middle jejunum [4]; [15]) was 10.1 ± 0.7 mm. For the same substance, the “amplitude of ACh stimulated contractions” value (middle jejunum [4]; [16]) was 7.0 ± 0.9^b mm, the “amplitude of ACh stimulated contractions” value (middle jejunum [4]; [17]) was 4.8 ± 0.9 mm and the “amplitude of ACh stimulated contractions” value (middle jejunum [4]; [18]) was 4.6 ± 0.9 mm. For the same substance, the “amplitude of ACh stimulated contractions” value (middle jejunum [4]; [19]) was 3.9 ± 0.8^a^b mm, the “amplitude of atropine treated contractions” value (middle jejunum [4]; [7]) was 1.10 ± 0.2^b mm and the “amplitude of ACh stimulated contractions” value (middle jejunum [4]; [20]) was 13.7 ± 0.8^b mm. For the same substance, the “amplitude of ACh stimulated contractions” value (middle jejunum [4]; [21]) was 9.0 ± 0.8 mm, the “amplitude of ACh stimulated contractions” value (middle jejunum [4]; [22]) was 7.3 ± 0.8^b mm and the “amplitude of ACh stimulated contractions” value (middle jejunum [4]; [23]) was 6.8 ± 0.6 mm. The “amplitude of ACh stimulated contractions” value (middle jejunum [4]; [24]) was 6.7 ± 0.7 mm, the “amplitude of ACh stimulated contractions” value (middle jejunum [4]; [25]) was 6.6 ± 0.7^b mm and the “amplitude of atropine treated contractions” value (middle jejunum [4]; [8]) was 1.20 ± 0.1^b mm. For the same substance, the “Thickness of muscularis layer” value (duodenum [5]; [26]) was 106 ± 11^b μm, the “Thickness of muscularis layer” value (duodenum [5]; [7]) was 107 ± 8^b μm and the “Thickness of muscularis layer” value (duodenum [5]; [8]) was 89 ± 8^b μm. The “Thickness of muscularis layer” value (middle jejunum [6]; [26]) was 88 ± 9^a μm and the “Thickness of muscularis layer” value (middle jejunum [6]; [7]) was 63 ± 7^b μm.
